The nature of data set [1]: Liver lobe distribution after hepatic portal vein injection of methylene blue solution. It is filed as in vivo, balb/c mice. As to conditions: about 24 hours. How it is done: After zoletil and rumpun were injected into the abdominal cavity of balb/c mice at a ratio of 9:1 to anesthetize them, a methylene blue solution was injected by hepatic portal vein […]. After waiting for about 24 hours for tissue fixation of the methylene blue solution, all liver lobes were isolated by sacrificing the mice. The isolated liver lobes were fixed with a 10% formalin solution, made into a paraffin block, and cut into a thickness of 5 μm to prepare a tissue section slide. Thereafter, paraffin was removed from the tissue section slide, the slide was rehydrated, and then the tissue section was stained with a Harris hematoxylin solution and an eosin solution, and observed under an optical microscope.

For data set [2] the following is noted: about 5 mg/kg intravenously injected; cited from earlier work.

The structures appear in SMILES notation.

With `CN(C)c1ccc2nc3ccc(=[N+](C)C)cc-3sc2c1` [methylene blue solution, methylene blue], the “distribution of methylene blue solution among liver lobes (image J)” value in data set [1] is on record as “present in the largest amount in Mediate 1”. Take `CC1(C)[C@@H](O[C@H]2O[C@H](C(=O)O)[C@@H](O)[C@H](O)[C@H]2O[C@@H]2O[C@H](C(=O)O)[C@@H](O)[C@H](O)[C@H]2O)CC[C@]2(C)[C@H]3C(=O)C=C4[C@@H]5C[C@@](C)(C(=O)O)CC[C@]5(C)CC[C@@]4(C)[C@]3(C)CC[C@@H]12` [glycyrrhizin]: in data set [2], the “time glycyrrhizin remains in the body” value was at most 15 min.

(Values after patent US20260130951A1, “GLYCYRRHIZIN-GLYCOL CHITOSAN CONJUGATE-COATED IRON OXIDE NANOPARTICLES AND USE THEREOF” (Industry-University Cooperation Foundation Hanyang …, priority 2018, published 2026).)
